The values that follow come from US12404289B2 (Gilead Sciences, Inc., priority 2020, dated 2025).

What all share (type): cell-based
Experiment [1] relates to Respiratory syncytial virus (RSV) strain A2. Description: Hep-2 RSV2 384-well assay (EC50-HEP2-384). The conditions noted are these: HEp-2 cells, RSV A2, MOI=4, 4 days, Table 3.
Experiment [2] has the same test system. Description: RSV antiviral assay (HEp-2, 96 well). The conditions noted are these: human respiratory syncytial virus, HEp-2, 96 h, read-out: EC50 RSV HEP2 96, HEp-2 cells, RSV A2, MOI=4, 4 days, 96 well; Table 3.
Another experiment relates to SARS-CoV-2. Description: SARS-CoV-2 antiviral assay (A549-hACE2, Nano luciferase). The conditions noted are these: Severe acute respiratory syndrome coronavirus 2, 48 h, A549-hACE2 cells, SARS-CoV2-Nano, MOI 0.025, 48 h; Table 4; read-out: EC50 SARS CoV2.
Setting [3] is: human respiratory syncytial virus, HEp-2, 96 h.

In experiment [1], `C[C@H](NP(=O)(OC[C@H]1O[C@@](C#N)(c2ccc3c(N)ncnn23)[C@H](O)[C@@H]1O)Oc1ccc(C(C)(C)C)cc1)C(=O)OC1CCC1` (single isomer, unassigned) [Example 31b] had an EC50 of 41.1 nM.
In experiment [1] (setting [3]), `CCCOC(=O)[C@H](C)NP(=O)(OC[C@H]1O[C@@](C#N)(c2ccc3c(N)ncnn23)[C@H](O)[C@@H]1O)Oc1ccc(C(C)(C)C)cc1` (single isomer, unassigned) [Example 47a] gave a half-maximal effective concentration (EC50) of 41.6 nM.
As for `CCCOC(=O)[C@H](C)NP(=O)(OC[C@H]1O[C@@](C#N)(c2ccc3c(N)ncnn23)[C@H](O)[C@@H]1O)Oc1ccc(C(C)(C)C)cc1` (single isomer, unassigned) [Example 47b], the half-maximal effective concentration (EC50) in experiment [1] came to 68.3 nM.
`CCCOC(=O)[C@H](C)NP(=O)(OC[C@H]1O[C@@](C#N)(c2ccc3c(N)ncnn23)[C@H](OC(=O)C(C)C)[C@@H]1OC(=O)C(C)C)Oc1ccc(C(C)(C)C)cc1` (single isomer, unassigned) [Example 48a]: a half-maximal effect in experiment [1] (setting [3]) (EC50) was put at 34 nM.
In the case of `CCCOC(=O)[C@H](C)NP(=O)(OC[C@H]1O[C@@](C#N)(c2ccc3c(N)ncnn23)[C@H](OC(=O)C(C)C)[C@@H]1OC(=O)C(C)C)Oc1ccc(C(C)(C)C)cc1` (single isomer, unassigned) [Example 48b], the EC50 in experiment [1] worked out at 55.4 nM.
The same measure, in the same setting: with `CCC(CC)COC(=O)[C@H](C)NP(=O)(OC[C@H]1O[C@@](C#N)(c2ccc3c(N)ncnn23)[C@H](O)[C@@H]1O)Oc1cccc2c1CCCC2` (single isomer, unassigned) [Example 135] the figure was 1260 nM; with `CCC(CC)COC(=O)[C@H](C)NP(=O)(OC[C@H]1O[C@@](C#N)(c2ccc3c(N)ncnn23)[C@H](O)[C@@H]1O)Oc1cccc2c1CCCC2` (single isomer, unassigned) [Example 136], 377 nM.
The molecule `C[C@H](NP(=O)(OC[C@H]1O[C@@](C#N)(c2ccc3c(N)ncnn23)[C@H](O)[C@@H]1O)Oc1ccc(C(C)(C)C)cc1)C(=O)O[C@H]1CCOC1` (stereo partly drawn) [Example 34, (S)-tetrahydrofuran-3-yl ((((2R,3S,4R,5R)-5-(4-aminopyrrolo[2,1-f][1,2,4]triazin-7-yl)-5-cyano-3,4-dihydroxytetrahydrofuran-2-yl)methoxy)(4-(tert-butyl)phenoxy)phosphoryl)-L-alaninate] gave an EC50 in experiment [1] (setting [3]) of 1500 nM.
Still for that read-out and setting: with `CC(=O)O[C@H]1[C@@H](OC(C)=O)[C@](C#N)(c2ccc3c(N)ncnn23)O[C@@H]1COP(=O)(N[C@@H](C)C(=O)O[C@H]1CCOC1)Oc1ccc(C(C)(C)C)cc1` (stereo partly drawn) [Example 35, (2R,3R,4R,5R)-2-(4-aminopyrrolo[2,1-f][1,2,4]triazin-7-yl)-5-((((4-(tert-butyl)phenoxy)(((S)-1-oxo-1-(((S)-tetrahydrofuran-3-yl)oxy)propan-2-yl)amino)phosphoryl)oxy)methyl)-2-cyanotetrahydrofuran-3,4-diyl Diacetate] the figure was 185 nM; with `CC(C)C(=O)O[C@H]1[C@@H](OC(=O)C(C)C)[C@](C#N)(c2ccc3c(N)ncnn23)O[C@@H]1COP(=O)(N[C@@H](C)C(=O)O[C@H]1CCOC1)Oc1ccc(C(C)(C)C)cc1` (stereo partly drawn) [Example 36, (2R,3R,4R,5R)-2-(4-aminopyrrolo[2,1-f][1,2,4]triazin-7-yl)-5-((((4-(tert-butyl)phenoxy)(((S)-1-oxo-1-(((S)-tetrahydrofuran-3-yl)oxy)propan-2-yl)amino)phosphoryl)oxy)methyl)-2-cyanotetrahydrofuran-3,4-diyl bis(2-methylpropanoate)], 102 nM; with `CC(C)C(=O)O[C@H]1[C@@H](OC(=O)C(C)C)[C@](C#N)(c2ccc3c(N)ncnn23)O[C@@H]1CO[P@@](=O)(N[C@@H](C)C(=O)O[C@H]1CCOC1)Oc1ccc(C(C)(C)C)cc1` [Example 38, (2R,3R,4R,5R)-2-(4-aminopyrrolo[2,1-f][1,2,4]triazin-7-yl)-5-((((4-(tert-butyl)phenoxy)(((S)-1-oxo-1-(((S)-tetrahydrofuran-3-yl)oxy)propan-2-yl)amino)phosphoryl)oxy)methyl)-2-cyanotetrahydrofuran-3,4-diyl bis(2-methylpropanoate)], 138 nM.
Same read-out and setting: to `CCC(CC)COC(=O)[C@H](C)NP(=O)(OC[C@H]1O[C@@](C#N)(c2ccc3c(N)ncnn23)[C@H](O)[C@@H]1O)Oc1ccc(C#N)cc1` (stereo partly drawn) [Example 39, 2-ethylbutyl ((((2R,3S,4R,5R)-5-(4-aminopyrrolo[2,1-f][1,2,4]triazin-7-yl)-5-cyano-3,4-dihydroxytetrahydrofuran-2-yl)methoxy)(4-cyanophenoxy)phosphoryl)-L-alaninate] belongs 1600 nM.
Molecule `CCC(CC)COC(=O)[C@H](C)NP(=O)(OC[C@H]1O[C@@](C#N)(c2ccc3c(N)ncnn23)[C@H](OC(=O)C(C)C)[C@@H]1OC(=O)C(C)C)Oc1ccc(C#N)cc1` (stereo partly drawn) [Example 40, (2R,3R,4R,5R)-2-(4-aminopyrrolo[2,1-f][1,2,4]triazin-7-yl)-2-cyano-5-((((4-cyanophenoxy)(((S)-1-(2-ethylbutoxy)-1-oxopropan-2-yl)amino)phosphoryl)oxy)methyl)tetrahydrofuran-3,4-diyl bis(2-methylpropanoate)] displayed a 50% effective concentration (EC50) in experiment [1] (setting [3]) of 226 nM.
The molecule `CCOC(=O)[C@H](C)NP(=O)(OC[C@H]1O[C@@](C#N)(c2ccc3c(N)ncnn23)[C@H](O)[C@@H]1O)Oc1ccc(C23CC(C2)C3)cc1` (stereo partly drawn) [Example 41, Ethyl ((((2R,3S,4R,5R)-5-(4-aminopyrrolo[2,1-f][1,2,4]triazin-7-yl)-5-cyano-3,4-dihydroxytetrahydrofuran-2-yl)methoxy)(4-(bicyclo[1.1.1]pentan-1-yl)phenoxy)phosphoryl)-L-alaninate] had a 50% effective concentration (EC50) in experiment [1] (setting [3]) of 142 nM.
Same read-out and setting: to `C[C@H](NP(=O)(OC[C@H]1O[C@@](C#N)(c2ccc3c(N)ncnn23)[C@H](O)[C@@H]1O)Oc1ccc(C(C)(C)C)cc1)C(=O)OCc1ccccc1` (stereo partly drawn) [Example 57, Benzyl ((((2R,3S,4R,5R)-5-(4-aminopyrrolo[2,1-f][1,2,4]triazin-7-yl)-5-cyano-3,4-dihydroxytetrahydrofuran-2-yl)methoxy)(4-(tert-butyl)phenoxy)phosphoryl)-L-alaninate] belongs 186 nM.
The same measure, in the same setting: to `CC(C)C(=O)O[C@H]1[C@@H](OC(=O)C(C)C)[C@](C#N)(c2ccc3c(N)ncnn23)O[C@@H]1COP(=O)(N[C@@H](C)C(=O)OCc1ccccc1)Oc1ccc(C(C)(C)C)cc1` (stereo partly drawn) [Example 58, (2R,3R,4R,5R)-2-(4-aminopyrrolo[2,1-f][1,2,4]triazin-7-yl)-5-((((((S)-1-(benzyloxy)-1-oxopropan-2-yl)amino)(4-(tert-butyl)phenoxy)phosphoryl)oxy)methyl)-2-cyanotetrahydrofuran-3,4-diyl bis(2-methylpropanoate)] belongs 71.5 nM; to `CCC(CC)COC(=O)[C@H](C)NP(=O)(OC[C@H]1O[C@@](C#N)(c2ccc3c(N)ncnn23)[C@H](O)[C@@H]1O)Oc1ccc(N2CCOCC2)cc1` (stereo partly drawn) [Example 92, 2-ethylbutyl ((((2R,3S,4R,5R)-5-(4-aminopyrrolo[2,1-f][1,2,4]triazin-7-yl)-5-cyano-3,4-dihydroxytetrahydrofuran-2-yl)methoxy)(4-morpholinophenoxy)phosphoryl)-L-alaninate], 2490 nM.
On to `CCC(=O)O[C@H]1[C@@H](OC(=O)CC)[C@](C#N)(c2ccc3c(N)ncnn23)O[C@@H]1COP(=O)(N[C@@H](C)C(=O)OC)Oc1ccc(C(C)(C)C)cc1` (stereo partly drawn) [Example 113, (2R,3R,4R,5R)-2-(4-aminopyrrolo[2,1-f][1,2,4]triazin-7-yl)-5-((((4-(tert-butyl)phenoxy)(((S)-1-methoxy-1-oxopropan-2-yl)amino)phosphoryl)oxy)methyl)-2-cyanotetrahydrofuran-3,4-diyl Dipropionate], for which the 50% effective concentration (EC50) in experiment [2] was determined as 22.1 nM; in the experiment on SARS-CoV-2, 126 nM.
Taken in the same sequence, the figures for `CC(C)COC(=O)[C@H](C)NP(=O)(OC[C@H]1O[C@@](C#N)(c2ccc3c(N)ncnn23)[C@H](O)[C@@H]1O)Oc1ccc(C(C)(C)C)cc1` (stereo partly drawn) [Example 118, isobutyl ((((2R,3S,4R,5R)-5-(4-aminopyrrolo[2,1-f][1,2,4]triazin-7-yl)-5-cyano-3,4-dihydroxytetrahydrofuran-2-yl)methoxy)(4-(tert-butyl)phenoxy)phosphoryl)-L-alaninate] were 23.5 nM and 329 nM.
In the case of `CCC(C)(C)COC(=O)[C@H](C)NP(=O)(OC[C@H]1O[C@@](C#N)(c2ccc3c(N)ncnn23)[C@H](O)[C@@H]1O)Oc1ccc(C(C)(C)C)cc1` (stereo partly drawn) [Example 121, 2,2-dimethylbutyl ((((2R,3S,4R,5R)-5-(4-aminopyrrolo[2,1-f][1,2,4]triazin-7-yl)-5-cyano-3,4-dihydroxytetrahydrofuran-2-yl)methoxy)(4-(tert-butyl)phenoxy)phosphoryl)-L-alaninate], the figures for the half-maximal effective concentration (EC50) (in experiment [2]; in the experiment on SARS-CoV-2) were 23.5 nM and 110 nM, respectively.
On to `CCOC(=O)[C@H](C)NP(=O)(OC[C@H]1O[C@@](C#N)(c2ccc3c(N)ncnn23)[C@H](O)[C@@H]1O)Oc1cccc2ccccc12` (stereo partly drawn) [Intermediate S1, ethyl (2S)-2-[[[(2R,3S,4R,5R)-5-(4-aminopyrrolo[2,1-f][1,2,4]triazin-7-yl)-5-cyano-3,4-dihydroxy-tetrahydrofuran-2-yl]methoxy-(1-naphthyloxy)phosphoryl]amino]propanoate], for which the EC50 in experiment [2] amounted to 93.3 nM; in the experiment with SARS-CoV-2 it was 714 nM.
`CCC(CC)COC(=O)[C@H](C)NP(=O)(OC[C@H]1O[C@@](C#N)(c2ccc3c(N)ncnn23)[C@H](O)[C@@H]1O)Oc1cccc2ccccc12` (stereo partly drawn) [Intermediate S2, 2-Ethylbutyl ((((2R,3S,4R,5R)-5-(4-aminopyrrolo[2,1-f][1,2,4]triazin-7-yl)-5-cyano-3,4-dihydroxytetrahydrofuran-2-yl)methoxy)(naphthalen-1-yloxy)phosphoryl)-L-alaninate]: the values for the EC50 (in experiment [2]; in the experiment with SARS-CoV-2) were 84.8 nM and 207 nM, respectively.

One may read the EC50 as the concentration that produces a half-maximal response.
